Measured values taken from publication PMC10301603, “Potent and Selective Benzothiazole-Based Antimitotics with Improved Water Solubility: Design, Synthesis, and Evaluation as Novel Anticancer Agents” (Pharmaceutics, 2023).

Key:
Format in all cases: cell-based, human
T98G cells = assay: Cell growth inhibition assay (MTT); conditions: 72 h after drug exposure
Procedure, shortened: (§1)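 Following overnight (24 h) attachment, cultures received serial compound concentrations from 10^−10 to 10^−2 M and were incubated 72 h before MTT viability measurement. Where efflux-pump sensitivity was tested, IC50 was redetermined with 10 µM verapamil present.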

HT-29 cells = assay: Cell growth inhibition assay (MTT)
Procedure, shortened: as §1

MCF7 cells [1] = assay: Cell growth inhibition assay (MTT); conditions: for IC50: MTT, 72 h after drug exposure
Procedure, shortened: (§2)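 MTT read-out of antiproliferative activity 72 h after compound addition to attached cells grown in DMEM with 10% FBS at 37 °C, 5% CO2. IC50 derived from concentration series spanning 10^−10 to 10^−2 M, measured in triplicate and repeated three times.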

PC-3 cells = assay: Cell growth inhibition assay (MTT)
Procedure, shortened: as §1

U87MG cells [2] = assay: Cell growth inhibition assay (MTT); conditions: for IC50: MTT, 72 h after drug exposure
Procedure, shortened: as §2

HeLa cells [3] = assay: Cell growth inhibition assay (MTT); conditions: 72 h after drug exposure
Procedure, shortened: as §1

LNCaP cells = assay: Cell growth inhibition assay (MTT); conditions: 72 h after drug exposure
Procedure, shortened: as §2

HepG2 cells = assay: Cell growth inhibition assay (MTT)
Procedure, shortened: as §2

HEK-293 cells = assay: Cell growth inhibition assay (MTT), non-tumorigenic cells; conditions: non-tumorigenic cell line
Procedure, shortened: as §2

MCF7 cells [4] = assay: Immunofluorescence of cellular microtubules (confocal microscopy); conditions: MCF7, 24 h; 8 and 14 100 nM, 9 500 nM
Method: (§3) The 8 × 10^4 HeLa, MCF7, and U87 MG cells were seeded on 0.01% poly-L-lysine pre-coated square glass coverslips ([…]) deposited on 6-well plates (1 coverslip/well) and incubated in complete DMEM medium (see above) at 37 °C and 5% CO2 atmosphere for 24 h. Then, the culture medium was replaced by fresh complete DMEM, and cells were incubated in the presence or absence of selected compounds for 24 h. Untreated cells were used as negative controls. […] In that way, compounds with similar antiproliferative potencies were tested at the same concentrations. HeLa cells were treated with 200 nM of compounds 8 and 14 and 500 nM of compound 9; MCF7 cells were treated with 100 nM of compounds 8 and 14 and 500 nM of compound 9; and U87 MG cells were treated with 50 nM of compound 8 and 100 nM of compounds 9 and 14. After incubation, medium was removed and coverslips were washed three times with PBS, fixed in 4% formaldehyde in PBS for 10 min, permeabilized with 0.5% Triton X-100 (Sigma-Aldrich, St. Louis, MO, USA) in PBS for 90 s at 4 °C, and blocked with 10% BSA in PBS for 30 min. After four washes with PBS, the coverslips were incubated for 1 h with anti-α-tubulin mouse monoclonal antibody (Sigma-Aldrich, St. Louis, MO, USA), and diluted 1:200 in PBS containing 3% BSA. After four washes wish PBS, coverslips were incubated, in darkness, with fluorescent secondary antibody Alexa Fluor 488 goat anti-mouse IgG (Molecular Probes, Invitrogen, Eugenen, OR, USA), and diluted 1:400 in PBS containing 1% BSA for 1.5 h. After four washes with PBS, a drop of ProLong™ Gold Antifade Mountant containing DAPI (ThermoFisher, Waltham, MA, USA) was added for cell nuclei staining. Samples were analyzed via confocal microscopy using a LEICA SP5 microscope DMI-6000V model coupled to a LEICA LAS AF software computer.

U87MG cells [5] = assay: as above; conditions: 24 h, 8 50 nM, 9 and 14 100 nM
Method: as §3

HeLa cells [6] = assay: as above; conditions: 24 h, 8 and 14 200 nM, 9 500 nM
Method: as §3

Question: `COc1ccc2nc(N(C=O)Cc3cccnc3)sc2c1` [Compound 14, N-(6-methoxybenzo[d]thiazol-2-yl)-N-(pyridin-3-ylmethyl)formamide] was tested. Which IC50 (T98G cells; Homo sapiens, T98G) did it give?
Answer: 75 nM

Question: And the IC50 (HT-29 cells; Homo sapiens, HT-29, 72 h after drug exposure)?
Answer: 322 nM

Question: What about the “selectivity index against MCF7” value (MCF7 cells [1]; HEK-293 versus MCF7) of the same compound?
Answer: ~500

Question: And the IC50 (MCF7 cells [1]; Homo sapiens, MCF7)?
Answer: 15 nM

Question: What about the IC50 (PC-3 cells; Homo sapiens, PC-3, 72 h after drug exposure) of the same compound?
Answer: 195 nM

Question: And the IC50 (U87MG cells [2]; Homo sapiens, U-87 MG)?
Answer: 37 nM

Question: What about the IC50 (HeLa cells [3]; Homo sapiens, HeLa) of the same compound?
Answer: 107 nM

Question: And the IC50 (LNCaP cells; Homo sapiens, LNCaP)?
Answer: 93 nM

Question: What about the IC50 (HepG2 cells; Homo sapiens, HepG2, 72 h after drug exposure) of the same compound?
Answer: 83 nM

Question: And the IC50 (HEK-293 cells; Homo sapiens, HEK293, 72 h after drug exposure)?
Answer: 8.22 µM

Question: And the “effect on the microtubule network” value (MCF7 cells [4])?
Answer: disruption of the microtubule network

Question: What about the “effect on the microtubule network” value (U87MG cells [5]) of the same compound?
Answer: disruption of the microtubule network

Question: And the “effect on the microtubule network” value (HeLa cells [6])?
Answer: disruption of the microtubule network

Question: Which IC50 (T98G cells) does the source give for `CCNC(=O)N(Cc1cccnc1)c1nc2ccc(OC)cc2s1` [Compound 8] here?
Answer: 52 nM

Question: What about the IC50 (HT-29 cells; 72 h after drug exposure) of the same compound?
Answer: 208 nM

Question: And the IC50 (MCF7 cells [1])?
Answer: 34 nM

Question: What about the IC50 (PC-3 cells; 72 h after drug exposure) of the same compound?
Answer: 161 nM

Question: And the “selectivity index against U87MG” value (U87MG cells [2]; HEK-293 versus U87MG)?
Answer: ~900

Question: And the IC50 (U87MG cells [2])?
Answer: 9 nM

Question: And the IC50 (HeLa cells [3])?
Answer: 85 nM

Question: And the IC50 (LNCaP cells)?
Answer: 88 nM

Question: And the IC50 (HepG2 cells; 72 h after drug exposure)?
Answer: 94 nM

Question: What about the IC50 (HEK-293 cells; 72 h after drug exposure) of the same compound?
Answer: 7.97 µM

Question: What about the “effect on the microtubule network” value (MCF7 cells [4]) of the same compound?
Answer: disruption of the microtubule network

Question: And the “effect on the microtubule network” value (U87MG cells [5])?
Answer: disruption of the microtubule network

Question: And the “effect on the microtubule network” value (HeLa cells [6])?
Answer: disruption of the microtubule network
